Active and inactive are the calls of the source. The calls are words filed in the database; no cut-off is given here.

The values below come from ChEMBL document CHEMBL5252642, “Design and synthesis of naturally-inspired SARS-CoV-2 inhibitors” (RSC Med Chem, 2023).

One data set deals with SARS-CoV-2. Nature of the data set: Antiviral activity against SARS-CoV-2 Omicron BA1 variant infected human A549-ACE2 cells assessed as inhibition of viral replication. It is filed as functional, organism-based. The conditions noted are these: Severe acute respiratory syndrome coronavirus 2, Omicron BA1, A549-ACE2.
One may read the EC50 as the midpoint of the concentration-response curve. As to `COc1ccc(CCN2C[C@H]3O[C@]4(C2)CN(S(=O)(=O)c2ccc(C)cc2)[C@]2(C(C)C)C=C[C@H](O)[C@H]3[C@H]42)cc1`, the half-maximal effective concentration (EC50) came to 3.5 µM. Take `COc1cc(CN2C[C@H]3O[C@]4(C2)CN(S(=O)(=O)c2ccc(C)cc2)[C@]2(C(C)C)CC[C@H](OCCCN(C)C)[C@H]3[C@H]42)cc(OC)c1`: the half-maximal effective concentration (EC50) is 4.4 µM.

Test system in another data set: not listed separately
In words: Selectivity index, ratio of CC50 for human A549-ACE2 cells to EC50 for antiviral activity against SARS-CoV-2 Omicron BA1 variant infected human A549-ACE2 cells. In kind it is toxicity. The settings on record: read-out: Ratio CC50/EC50.
For `Cc1ccc(S(=O)(=O)N2C[C@@]34CN(Cc5ccccc5)C[C@@H](O3)[C@@H]3[C@H]4[C@@]2(C(C)C)C=C[C@@H]3O)cc1`, the selectivity ratio was more than 3. As for `Cc1ccc(S(=O)(=O)N2C[C@@]34CN(C)C[C@@H](O3)[C@H]3[C@@H](Oc5ncccn5)CC[C@]2(C(C)C)[C@H]34)cc1`, the selectivity ratio is 0.8. For `Cc1ccc(S(=O)(=O)N2C[C@@]34CN(Cc5ccccc5)C[C@@H](O3)[C@H]3[C@@H](Oc5ncccn5)CC[C@]2(C(C)C)[C@H]34)cc1`, the selectivity ratio came out at 1. Regarding `Cc1ccc(S(=O)(=O)N2C[C@@]34CN(Cc5nc6ccccc6s5)C[C@@H](O3)[C@@H]3[C@H]4[C@@]2(C(C)C)CC[C@@H]3O)cc1`, the selectivity ratio is 1.6. Still for that read-out and setting: as for `Cc1ccc(S(=O)(=O)N2C[C@@]34CN(Cc5ccccc5)C[C@@H](O3)[C@H]3C(=O)CC[C@]2(C(C)C)[C@H]34)cc1`, the figure is 0.7; as for `COc1ccc(CCN2C[C@H]3O[C@]4(C2)CN(S(=O)(=O)c2ccc(C)cc2)[C@]2(C(C)C)C=C[C@H](O)[C@H]3[C@H]42)cc1`, 3.3.

With `COc1ccc(CCN2C[C@H]3O[C@]4(C2)CN(S(=O)(=O)c2ccc(C)cc2)[C@]2(C(C)C)C=CC(=O)[C@H]3[C@H]42)cc1`, the selectivity ratio came to 0.5.

For `COc1cc(CN2C[C@H]3O[C@]4(C2)CN(S(=O)(=O)c2ccc(C)cc2)[C@]2(C(C)C)CC[C@H](OCCCN(C)C)[C@H]3[C@H]42)cc(OC)c1`, the selectivity ratio was 5.7.

Take `Cc1ccc(S(=O)(=O)N2C[C@@]34CN(Cc5nc6ccccc6s5)C[C@@H](O3)[C@H]3C(=O)CC[C@]2(C(C)C)[C@H]34)cc1`: the selectivity ratio came out at 6.9. Regarding `Cc1ccc(S(=O)(=O)N2C[C@@]34CN(C(=O)c5ccc(F)cc5N)C[C@@H](O3)[C@@H]3[C@H]4[C@@]2(C(C)C)CC[C@@H]3O)cc1`, the selectivity ratio was determined as 1.4. The same measure, in the same setting: as for `Cc1ccc(S(=O)(=O)N2C[C@@]34CN(C(=O)c5cccs5)C[C@@H](O3)[C@@H]3[C@H]4[C@@]2(C(C)C)CC[C@@H]3O)cc1`, the figure is more than 3; as for `COc1cc(CN2C[C@H]3O[C@]4(C2)CN(S(=O)(=O)c2ccc(C)cc2)[C@]2(C(C)C)CC[C@H](O)[C@H]3[C@H]42)cc(OC)c1`, 2.3.

As for `Cc1ccc(S(=O)(=O)N2C[C@@]34CN(Cc5ccccc5)C[C@@H](O3)[C@H]3C(=O)C=C[C@]2(C(C)C)[C@H]34)cc1`, the selectivity ratio was 0.9. Same read-out and setting: as for `Cc1ccc(S(=O)(=O)N2C[C@@]34CN(CCc5c[nH]c6ccccc56)C[C@@H](O3)[C@@H]3[C@H]4[C@@]2(C(C)C)CC[C@@H]3O)cc1`, the figure is 1.6.

The test system of the next data set is Severe acute respiratory syndrome coronavirus 2. Nature of the data set: Inhibition of SARS-CoV2 main protease C145A mutant by measuring luciferase signal at 0.02 to 125 uM by reverse-nanoluciferase reporter assay. The settings on record: dose 0.02-125 µM. Background: A reporter such as luciferase makes a cellular process visible.
As for `CC(C)C[C@H](NC(=O)OCc1ccccc1)C(=O)N[C@@H](C[C@@H]1CCNC1=O)C(O)S(=O)(=O)O` (stereo partly drawn), the inhibition result was “inactive”. Same read-out and setting: in the case of `COc1ccc(CCN2C[C@H]3O[C@]4(C2)CN(S(=O)(=O)c2ccc(C)cc2)[C@]2(C(C)C)C=C[C@H](O)[C@H]3[C@H]42)cc1` it was “inactive”.
